Source: the supplement of paper PMC10307832

Columns and labels:
Experiment in all cases: relative viability (nuclei count vs DMSO), 5 days (fraction); higher = more cells survive
XMD14-99 + Alpelisib = compound: CN1CCN(CC1)C2=CC(=C(C=C2)NC3=NC(=C(S3)C(=O)C4=C(C=CC=C4Cl)Cl)N)OC [XMD14-99] + Cc1nc(NC(=O)N2CCC[C@H]2C(N)=O)sc1-c1ccnc(C(C)(C)C(F)(F)F)c1 [Alpelisib] (partner 2 µM)
Method in brief: (§1)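 For relative viability, nuclei counts in treated wells were divided by those in vehicle wells. Lung cancer cell lines had been pin-tool dosed in 1536-well plates the day after seeding and cultured for 5 days, then fixed and stained in one step (final 0.05% Triton X-100, 1% formaldehyde, 1 ug/ml Hoechst) and imaged at 4×. Doses were one drug alone or a fixed anchor-drug dose plus five library-drug doses (not always all listed) in √10 steps, and values are duplicate-plate medians.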

XMD14-99 + Dasatinib = compound: CN1CCN(CC1)C2=CC(=C(C=C2)NC3=NC(=C(S3)C(=O)C4=C(C=CC=C4Cl)Cl)N)OC [XMD14-99] + Cc1nc(Nc2ncc(C(=O)Nc3c(C)cccc3Cl)s2)cc(N2CCN(CCO)CC2)n1 [Dasatinib] (partner 0.075 µM)
Method in brief: as §1

AZD1208 + Foretinib = compound: N[C@@H]1CCCN(c2c(/C=C3\SC(=O)NC3=O)cccc2-c2ccccc2)C1 [AZD1208] + COc1cc2c(Oc3ccc(NC(=O)C4(C(=O)Nc5ccc(F)cc5)CC4)cc3F)ccnc2cc1OCCCN1CCOCC1 [Foretinib] (partner 0.25 µM)
Method in brief: as §1

AZD1208 + Phenformin = compound: N[C@@H]1CCCN(c2c(/C=C3\SC(=O)NC3=O)cccc2-c2ccccc2)C1 [AZD1208] + N=C(N)NC(=N)NCCc1ccccc1 [Phenformin] (partner 250 µM)
Method in brief: as §1

Cell Line | relative viability (XMD14-99 + Alpelisib; first compound 0.08 µM) | relative viability (XMD14-99 + Alpelisib; first compound 0.8 µM) | relative viability (XMD14-99 + Alpelisib; first compound 2.53 µM) | relative viability (XMD14-99 + Alpelisib; first compound 8 µM) | relative viability (XMD14-99 + Dasatinib; first compound 0.08 µM) | relative viability (XMD14-99 + Dasatinib; first compound 0.8 µM) | relative viability (XMD14-99 + Dasatinib; first compound 2.53 µM) | relative viability (XMD14-99 + Dasatinib; first compound 8 µM) | relative viability (AZD1208 + Foretinib; first compound 0.08 µM) | relative viability (AZD1208 + Foretinib; first compound 0.253 µM) | relative viability (AZD1208 + Foretinib; first compound 0.8 µM) | relative viability (AZD1208 + Foretinib; first compound 2.53 µM) | relative viability (AZD1208 + Foretinib; first compound 8 µM) | relative viability (AZD1208 + Phenformin; first compound 0.08 µM) | relative viability (AZD1208 + Phenformin; first compound 0.253 µM) | relative viability (AZD1208 + Phenformin; first compound 0.8 µM) | relative viability (AZD1208 + Phenformin; first compound 2.53 µM) | relative viability (AZD1208 + Phenformin; first compound 8 µM)
SK-LU-1 | 0.893 | 0.96 | 0.996 | 0.598 | 0.182 | 0.204 | 0.181 | 0.163 | 0.794 | 0.917 | 0.8 | 0.721 | 0.661 | 0.502 | 0.543 | 0.408 | 0.506 | 0.42
SK-MES-1 | 0.924 | 0.909 | 0.851 | 0.591 | 0.381 | 0.398 | 0.336 | 0.225 | 0.84 | 0.949 | 0.817 | 0.769 | 0.661 | 0.668 | 0.672 | 0.648 | 0.696 | 0.621
SW 1573 | 0.8 | 0.737 | 0.697 | 0.651 | 0.401 | 0.42 | 0.52 | 0.325 | 0.709 | 0.872 | 0.837 | 0.573 | 0.653 | 0.295 | 0.272 | 0.27 | 0.244 | 0.228
